According to ChEMBL document CHEMBL1127003, “N-oleoyl-1,2,3,4-tetrahydroisoquinolines as conformationally restricted inhibitors of acyl-CoA:cholesterol acyl transferase (ACAT)” (Bioorg Med Chem Lett, 1993):

Key:
[1] = molecular target: T1, Sterol O-acyltransferase 1 (Rattus norvegicus) (UniProt O70536); assay: Percent inhibition of Acyl coenzyme A:cholesterol acyltransferase at a concentration of 25(micro M) was evaluated in rat liver microsomes using ACAT microsomal assay.; details: Microsome
T1 sequence (whole entry): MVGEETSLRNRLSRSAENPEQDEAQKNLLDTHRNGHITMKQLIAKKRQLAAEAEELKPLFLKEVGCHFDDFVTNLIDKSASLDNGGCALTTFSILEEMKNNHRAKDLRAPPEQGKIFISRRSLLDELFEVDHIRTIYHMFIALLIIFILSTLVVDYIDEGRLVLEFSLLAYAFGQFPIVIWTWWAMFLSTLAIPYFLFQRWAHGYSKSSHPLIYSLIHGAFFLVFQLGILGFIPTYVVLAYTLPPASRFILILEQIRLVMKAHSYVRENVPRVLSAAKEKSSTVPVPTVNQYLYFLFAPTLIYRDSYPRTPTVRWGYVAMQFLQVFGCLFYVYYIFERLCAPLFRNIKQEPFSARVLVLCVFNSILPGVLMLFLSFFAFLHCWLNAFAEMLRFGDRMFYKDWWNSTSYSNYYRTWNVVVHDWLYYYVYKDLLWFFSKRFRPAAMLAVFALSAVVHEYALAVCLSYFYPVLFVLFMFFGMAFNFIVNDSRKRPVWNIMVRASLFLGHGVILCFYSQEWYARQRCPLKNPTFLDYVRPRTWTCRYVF

[2] = molecular target: T2, Sterol O-acyltransferase 1 (Rattus norvegicus, UniProt O70536); assay: Inhibitory activity was evaluated in rat liver microsomes using Acyl coenzyme A:cholesterol acyltransferase microsomal assay.; design: species or system Microsome
T2 sequence (O70536 whole entry): T1 sequence (whole entry)

Structure (SMILES): CCCCCCCC/C=C\CCCCCCCC(=O)N1CCc2cc(OC)c(OC)cc2C1Cc1ccccc1 (stereo unspecified)
- inhibition [1]: 63%

Structure (SMILES): CCCCCCCC/C=C\CCCCCCCC(=O)N1Cc2cc(OC)c(OC)cc2CC1c1ccccc1 (stereo unspecified)
- inhibition [1]: 86%
- IC50 [2]: 3.8 µM

Structure (SMILES): CCCCCCCC/C=C\CCCCCCCC(=O)NC(Cc1ccccc1)c1ccccc1 (stereo unspecified)
- inhibition [1]: 87%
- IC50 [2]: 0.15 µM

Structure (SMILES): CCCCCCCC/C=C\CCCCCCCC(=O)N1CCc2cc(O)c(O)cc2C1Cc1ccccc1 (stereo unspecified)
- inhibition [1]: 73%

Structure (SMILES): CCCCCCCC/C=C\CCCCCCCC(=O)N1CCc2ccccc2C1Cc1ccccc1 (stereo unspecified)
- inhibition [1]: 81%
- IC50 [2]: 4.8 µM

Structure (SMILES): CCCCCCCC/C=C\CCCCCCCC(=O)N1Cc2cc(OC)c(OC)cc2CC1c1ccc(OC)c(OC)c1 (stereo unspecified)
- inhibition [1]: 67%

Structure (SMILES): CCCCCCCC/C=C\CCCCCCCC(=O)N1CCc2cc(OC)c(OC)cc2C1Cc1ccc(OC)c(OC)c1 (stereo unspecified)
- inhibition [1]: 91%
- IC50 [2]: 2.7 µM
